Patent US20210205340A1, “COMPOSITIONS COMPRISING SIALYLATED OLIGOSACCHARIDES FOR USE IN INFANTS OR YOUNG CHILDREN TO PREVENT LATER IN LIFE OBESITY OR RELATED COMORBIDITIES AND PROMOTE A HEALTHY GROWTH” (NESTEC S.A., priority 2016, published 2021)
Entries after “also recorded” stand apart in the source; their conditions may differ.

System: NCI-H716 cells
Test: Calcium assay: activation of NCI-H716 cells by sialylated oligosaccharides (change in fluorescence ratio from intracellular calcium increase)
Format: cell-based, human
Details: for significance of the increase in fluorescence ratio / concentration dependence of calcium response / activation of NCI-H716 cells / fluorescence ratio (intracellular calcium response): NCI-H716 cells; for significance of the increase in fluorescence ratio: 5 mg/mL, 10 mg/mL and 20 mg/mL, p<0.05 vs Negative control, two-sided t-test; for concentration dependence of calcium response / activation of NCI-H716 cells: 1-20 mg/mL, FIG. 1 / FIG. 3; for fluorescence ratio (intracellular calcium response): all the tested concentrations (1 mg/mL, 5 mg/mL, 10 mg/mL and 20 mg/mL), vs buffer negative control; for intracellular calcium release: in vitro system with endocrine intestinal cells, indicator of potential GLP-1 secretagogue capacity
Source text: NCI-H716 is a cell line derived from human L-cells, the enteroendocrine cells that secrete GLP-1, and it is often used as a model of GLP-1 secretion. Unstimulated NCI-H716 cells secrete a basal level of GLP-1 and activation of the cells leads to dose-dependent increase in GLP-1 secretion. Activation of the NCI-H716 cells and subsequent release of GLP-1 can be triggered by nutrients such as palmitic acid, oleic acid, and meat hydrolysate, Gastrin Releasing Peptide (GRP), the cholinergic molecule Carbachol, bitter compounds such as denatonium, ginsenosides and other molecules.
Activation of NCI-H716 cells by ionomycin, GRP, denatonium, or ginsenosides leads to increased intracellular calcium. Elevation of intracellular calcium is therefore a marker of cell activation and in NCI-H716 cells it could be considered as an indicator of GLP-1 release.
A calcium assay was used to determine if NCI-H716 cells respond to human milk oligosaccharides (sialylated oligosaccharides) or components/precursors thereof (lactose and sialic acid). In this assay, cultured NCI-H716 cells were loaded with a fluorescent calcium sensitive dye then stimulated with the HMOs. The response to the stimulus was measured by change in fluorescence ratio in consequence of intracellular calcium increase. The tested HMOs were 3′-sialyllactose (3SL) and 6′-sialyllactose (6SL). They were tested individually.
GRP (Gastrin Releasing Peptide): positive control
Tested HMOs concentrations: 1 mg/mL, 5 mg/mL, 10 mg/mL and 20 mg/mL
Tested lactose and sialic acid concentrations: 5.5 mg/mL and 4.72 mg/mL respectively (correspond to the amounts contained in 10 mg/mL of 3SL, in order to make a suitable comparison with 10 mg/mL of 3SL)

| Structure (SMILES) | activation of NCI-H716 cells (calcium response) (lactose 5.5 mg/mL (amount contained in 10 mg/mL of 3SL), FIG. 2) | significance of the increase in fluorescence ratio | concentration dependence of calcium response / activation of NCI-H716 cells | fluorescence ratio (intracellular calcium response) | intracellular calcium release | activation of NCI-H716 cells (calcium response) (sialic acid 4.72 mg/mL (amount contained in 10 mg/mL of 3SL), FIG. 2) | specificity of the calcium response (3SL 10 mg/mL compared with its components lactose and sialic acid, FIG. 2) |
| --- | --- | --- | --- | --- | --- | --- | --- |
| OC[C@H]1O[C@@H](O[C@H]2[C@H](O)[C@@H](O)C(O)O[C@@H]2CO)[C@H](O)[C@@H](O)[C@H]1O (some centres unmarked) [Lactose, lactose, reference compound] | did not activate the cells |  |  |  |  |  |  |
| CC(=O)N[C@H]1[C@H]([C@H](O)[C@H](O)CO)O[C@@](OC[C@H]2O[C@@H](O[C@H]3[C@H](O)[C@@H](O)C(O)O[C@@H]3CO)[C@H](O)[C@@H](O)[C@H]2O)(C(=O)O)C[C@@H]1O (stereo partly drawn) [6SL, (6R)-5-Acetamido-3,5-dideoxy-6-[(1R,2R)-1,2,3-trihydroxypropyl]-β-L-threo-hex-2-ulopyranonosyl-(2->6)β-D-galactopyranosyl-(1->4)-D-glucopyranose] |  | significant | clear concentration dependent calcium response; also recorded: dose dependent activation | enhanced | increased intracellular calcium release |  |  |
| CC(=O)N[C@H]1[C@H]([C@H](O)[C@H](O)CO)OC(O)(C(=O)O)C[C@@H]1O (some centres unmarked) [sialic acid, N-acetylneuraminic acid, reference compound] |  |  |  |  |  | did not activate the cells |  |
| CC(=O)N[C@H]1[C@H]([C@H](O)[C@H](O)CO)O[C@@](O[C@H]2[C@@H](O)[C@@H](CO)O[C@@H](O[C@H]3[C@H](O)[C@@H](O)C(O)O[C@@H]3CO)[C@@H]2O)(C(=O)O)C[C@@H]1O (stereo partly drawn) [3SL, (6R)-5-Acetamido-3,5-dideoxy-6-[(1R,2R)-1,2,3-trihydroxypropyl]-β-L-threo-hex-2-ulopyranonosyl-(2->3)β-D-galactopyranosyl-(1->4)-D-glucopyranose] |  | significant | clear concentration dependent calcium response; also recorded: dose dependent activation | enhanced | increased intracellular calcium release |  | specific |
